According to BigSolDB 2.1:

O=C(NC[C@H]1CN(c2ccc(N3CCOCC3=O)cc2)C(=O)O1)c1ccc(Cl)s1
solubility (mole fraction)
Conditions | 283.15 K | 288.15 K | 293.15 K | 298.15 K | 303.15 K | 308.15 K
in dichloromethane | 0.000254 | 0.00028 | 0.000308 | 0.000338 | 0.00037 | 0.000403
in ethanol | 1.21e-05 | 1.46e-05 | 1.75e-05 | 2.09e-05 | 2.5e-05 | 2.94e-05
in methanol | 2.41e-05 | 2.97e-05 | 3.63e-05 | 4.42e-05 | 5.29e-05 | 6.36e-05
in n-butanol | 5.56e-06 | 7.84e-06 | 1.08e-05 | 1.48e-05 | 2.01e-05 | 2.73e-05
in n-propanol | 7.99e-06 | 1.05e-05 | 1.37e-05 | 1.77e-05 | 2.26e-05 | 2.88e-05
